Our source for the inhibition and IC50 values is ChEMBL document CHEMBL2385014, “Melanogenesis inhibitory daphnane diterpenoids from the flower buds of Daphne genkwa” (Bioorg Med Chem Lett, 2013).

Assay [1] concerns B16. Description: Inhibition of melanin production in alpha-MSH stimulated mouse B16 cells after 72 hrs by spectrophotometry. Type of assay: functional, cell-based. To be noted: for IC50: B16, 72 h.
Assay [2] concerns B16. Description: Cytotoxicity against alpha-MSH stimulated mouse B16 cells after 72 hrs by MTT assay. To be noted: B16, 72 h. Type of assay: cell-based. For orientation: Tetrazolium assays rely on reduction of a dye to a coloured formazan, in cell work by metabolically active cells.

As a reminder, the IC50 is the point on the concentration scale where inhibition reaches its midpoint. Low values mean greater potency, high ones weaker potency.

Consider `C=C(C)[C@@]12O[C@@]3(/C=C/C=C/CCCCC)O[C@@H]1[C@@H]1[C@@H]4O[C@]4(CO)[C@@H](O)[C@]4(O)C(=O)C(C)=C[C@H]4[C@@]1(O3)[C@H](C)[C@H]2OC(=O)c1ccccc1` [GNIDILATIDIN], for which, in the assay on B16 [1], the inhibition entry was “Dose-dependent effect” and the midpoint of inhibition, the IC50, lay at 0.16 µM. In the assay with B16 [2], this compound registered an IC50 of over 30 µM.

As for `C=C(C)[C@@]12OCO[C@@H]1[C@@H]1[C@@H]3O[C@]3(CO)[C@@H](O)[C@]3(O)C(=O)C(C)=C[C@H]3[C@@]1(Oc1ccccc1)[C@H](C)[C@H]2OC(=O)c1ccccc1` [GENKWADAPHNIN], in the assay with B16 [1], the inhibition result was “Dose-dependent effect” and half-maximal inhibition (IC50) was put at 0.18 µM. The IC50 in the assay on B16 [2] is over 30 µM.

In the case of `C=C(C)[C@]12C[C@@H](C)[C@@]34OC(c5ccccc5)(O[C@@H]1[C@@H]3[C@H](O)[C@](O)(COC(=O)c1ccccc1)[C@@H](O)[C@@]1(O)[C@H]4C[C@H](C)[C@@H]1O)O2`, in the assay on B16 [1], the inhibition entry is “Dose-dependent effect” and the IC50 is 2 µM. This compound also yielded an IC50 in the assay with B16 [2] of over 30 µM.

On to `OC[C@H]1O[C@@H](Oc2ccc(O)cc2)[C@H](O)[C@@H](O)[C@@H]1O` [ARBUTIN], for which, in the assay with B16 [1], the IC50 is 140 µM.

Consider `C=C(C)[C@@]12OC3(C)O[C@@H]1[C@@H]1C=C(CO)C[C@]4(O)C(=O)C(C)=C[C@H]4[C@@]1(O3)[C@H](C)[C@H]2OC(C)=O`, for which, in the assay with B16 [1], the inhibition result is “Dose-dependent effect” and the IC50 amounted to 4.9 µM. The compound also registered an IC50 in the assay with B16 [2] of over 30 µM.

For the compound `C=C(C)[C@]12C[C@@H](C)[C@@]34OC(c5ccccc5)(O[C@@H]1[C@@H]3[C@H](O)[C@](O)(CO)[C@@H](O)[C@@]1(O)[C@H]4C[C@H](C)[C@@H]1O)O2`, the inhibition entry in the assay on B16 [1] is “Dose-dependent effect”. In addition, the IC50 was 9 µM with B16 [1] and over 30 µM in the assay with B16 [2].

With `C=C(C)[C@@]12OC3(/C=C/C=C/CCCCC)O[C@@H]1[C@@H]1[C@@H]4O[C@]4(CO)[C@@H](O)[C@]4(O)C(=O)C(C)=C[C@H]4[C@@]1(O3)[C@H](C)[C@H]2OC(=O)CC`, in the assay on B16 [1], the inhibition entry was “Dose-dependent effect” and the IC50 was found to be 0.19 µM. In the assay on B16 [2], this compound returned an IC50 of 28 µM.

Regarding `C=C(C)[C@@]12O[C@@]3(/C=C/C=C/CCCCC)O[C@@H]1[C@@H]1[C@@H]4O[C@]4(CO)[C@@H](O)[C@]4(O)C(=O)C(C)=C[C@H]4[C@@]1(O3)[C@H](C)[C@H]2OC(C)=O` [YUANHUADINE], in the assay with B16 [1], the inhibition entry was “Dose-dependent effect” and half-maximal inhibition (IC50) required 0.06 µM. The compound further returned an IC50 in the assay on B16 [2] of 22 µM.

`C=C(C)[C@]12C[C@@H](C)[C@@]34OC(c5ccccc5)(O[C@@H]1[C@@H]3[C@H](O)[C@](O)(COC(=O)/C=C/C=C/CCCCC)[C@@H](O)[C@@]1(O)[C@H]4C[C@H](C)[C@@H]1O)O2`: in the assay on B16 [1], the inhibition entry is “Dose-dependent effect” and the IC50 was 0.57 µM. In addition, in the assay with B16 [2], the IC50 is over 30 µM.

For the compound `C=C(C)[C@@]12OC3(C)O[C@@H]1[C@@H]1C=C(CO)C[C@]4(O)C(=O)C(C)=C[C@H]4[C@@]1(O3)[C@H](C)[C@H]2OC(=O)c1ccccc1`, the 50% inhibitory concentration (IC50) in the assay with B16 [1] was 2.3 µM; in the assay with B16 [2], 6.6 µM.
